Source: paper PMC5342591, “Development of a selected reaction monitoring mass spectrometry-based assay to detect asparaginyl endopeptidase activity in biological fluids” (Oncotarget, 2016)
Square brackets hold non-standard residues; d marks the D form. Peptide text beside a SMILES is read from it.

Assays:
[1] = target: T1, recombinant human AEP (rAEP) (Homo sapiens, UniProt Q99538); experiment: Michaelis-Menten / Lineweaver-Burk kinetics of rAEP with synthetic substrate, product measured by SRM-MS; type: biochemical; conditions: 16 hr incubation at 37°C; 10 ng rAEP; substrate 0.02 mM to 1.3 mM; Lineweaver-Burk plot; SRM-MS peak area of product; n = 3
T1 construct: 7xHis (N); purchased R & D Systems, Abingdon, UK; host or cells: NS0 murine myeloma cell line
T1 sequence (Q99538 18-323 limits assumed): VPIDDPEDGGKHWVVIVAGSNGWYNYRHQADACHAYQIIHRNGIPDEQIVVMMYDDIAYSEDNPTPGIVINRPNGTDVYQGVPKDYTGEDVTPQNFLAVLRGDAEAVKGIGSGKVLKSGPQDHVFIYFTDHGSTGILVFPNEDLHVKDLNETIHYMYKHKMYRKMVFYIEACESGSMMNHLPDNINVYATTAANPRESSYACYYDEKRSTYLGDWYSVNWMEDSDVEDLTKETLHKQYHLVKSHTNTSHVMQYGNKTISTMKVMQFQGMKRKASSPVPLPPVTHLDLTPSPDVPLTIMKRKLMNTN
Experimental: Figure 3 Development of Assay Conditions to Monitor AEP Activity in Plasma A. The level of hydrolysis of AEP substrate with respect to time. 2.44 ng/μl and 9.1 ng/μl of rAEP were spiked into a background of pH modified plasma (pH 5.8) and assayed by SRM-MS for the product peptide. Error bars shown are +/−SD (n = 3). B-C. Rate of AEP activity assayed with different concentrations of substrate (hpvFAANDVSKvph) ranging from 0.02 mM to 1.3 mM. Area under the curve, drawn from SRM-MS of the product peptide, was used to obtain the rate of reaction for AEP activity as shown in Michaelis-Menten Curve (B). […] D. The linearity and limit-of-detection of the AEP assay was investigated by measuring the amount of hydrolysis by 2.0 pg to 0.25 ng of rAEP spiked into 25 μl of plasma and product measured by SRM-MS of Error bars shown are +/−SEM (n = 3). The assay was repeated three times and a technical variance of 3-28% was calculated.
To optimise substrate concentration in our assay, 10 ng of rAEP was incubated with 0.02 mM to 1.3 mM of synthetic substrate for 1 hr, 4 hr (Supplementary Figure S2) or 16 hr (Figure 3B and 3C) at 37°C. The rate of reaction was determined from the amount of product formed per hour and used for Michaelis-Menten enzyme kinetic analysis (Figure 3B). […]
All samples were analysed on a 6500 Q-TRAP (AB Sciex, Warrington, UK) coupled to a nano Acquity uPLC (Waters Inc, MA, US). […]

[2] = Stability of cleaved substrate in plasma, SRM-MS; type: in vitro ADME; conditions: human plasma 25 μl diluted fivefold in assay buffer pH 5.8, 1 pmole to 1 amole spiked, ACN precipitation, n = 3
Experimental: Figure 2 Detection of Cleaved Substrate Peptide by Mass Spectrometry A-B. 10 ng of recombinant AEP (rAEP) was incubated with 1 μg (0.65 mM) synthetic substrate peptide (hpvFAANDVSKvph) overnight at 37°C. Samples were dried down by vacuum centrifuge and resuspended in LB. 5 pmole of the substrate was loaded on to the liquid chromatography column and cleaved substrate was analysed by SRM MS (A) followed by an DDA workflow (B). (A) Three SRM transitions (b4-481.25^+, b5-552.29^+, b6-623.33^+) were used to detect the cleaved substrate, sequenced as hpvFAAN (378.2^2+ precursor ion). The target peptide eluted at 32 min during the chromatographic gradient. (B) Product ion scans of precursor 378.2^2+ as analysed by DDA. C. […] Samples were resuspended in LB and analyzed by SRM MS. […]
For an assay to measure enzyme activity it is important that the product is stable for the duration of the assay and is present at a level that can be detected. The limit of detection (LOD) and stability of the product hpvFAAN were analysed by serial dilution down to 1 amole in the presence or absence of plasma using SRM MS analysis. This allowed the LOD to be calculated as 2 amole with a linear response up to 1 pmole without a plasma background (Figure 2C). […]

Structure (SMILES) | Km [1] [µM] | Stability of the product in plasma [2]
CC(C)[C@H](NC(=O)[C@H](CC(=O)O)NC(=O)[C@H](CC(N)=O)NC(=O)[C@H](C)NC(=O)[C@H](C)NC(=O)[C@H](Cc1ccccc1)NC(=O)[C@H](NC(=O)[C@H]1CCCN1C(=O)[C@H](N)Cc1c[nH]cn1)C(C)C)C(=O)N[C@@H](CO)C(=O)N[C@@H](CCCCN)C(=O)N[C@@H](C(=O)N1CCC[C@@H]1C(=O)N[C@H](Cc1c[nH]cn1)C(=O)O)C(C)C [hpvFAANDVSKvph] (H-[dH][dP][dV]FAANDVSK[dV][dP][dH]-OH) | 400 | 
CC(C)[C@@H](NC(=O)[C@H]1CCCN1C(=O)[C@H](N)Cc1c[nH]cn1)C(=O)N[C@@H](Cc1ccccc1)C(=O)N[C@@H](C)C(=O)N[C@@H](C)C(=O)N[C@@H](CC(N)=O)C(=O)O [hpvFAAN] (H-[dH][dP][dV]FAAN-OH) |  | stable
